The record followed here is patent US20220411428A1, “Pyrimidone Derivatives Containing Two Fused Bicyclic Rings” (priority 2019, published 2022).

Holding throughout (type): in vivo
In test [1] the test system is vetch aphid (Megoura viciae). The experiment in a line: Vetch aphid (Megoura viciae) broad bean leaf disk test, contact or systemic. As to conditions: foliar, 120 h, read-out: mortality in comparison with untreated controls. The protocol:
(§1) If not otherwise specified, the test solutions are prepared as follows: The active compound is dissolved at the desired concentration in a mixture of 1:1 (vol:vol) distilled water:acteone. The test solution is prepared at the day of use. Test solutions are prepared in general at concentrations of 2500 ppm, 1415 ppm, 828 ppm, 800 ppm and 300 ppm (wt/vol).
For evaluating control of vetch aphid (Megoura viciae) through contact or systemic means the test unit consisted of 24-well-microtiter plates containing broad bean leaf disks.
The compounds were formulated using a solution containing 75% v/v water and 25% v/v DMSO. Different concentrations of formulated compounds were sprayed onto the leaf disks at 2.5 μl, using a custom built micro atomizer, at two replications. After application, the leaf disks were air-dried and 5-8 adult aphids placed on the leaf disks inside the microtiter plate wells. The aphids were then allowed to suck on the treated leaf disks and incubated at about 23±1° C. and about 50±5% relative humidity for 5 days. Aphid mortality and fecundity was then visually assessed.

Test [2] relates to yellow fever mosquito (Aedes aegypti). The experiment in a line: whole plant or invertebrate. As to conditions: 48 h, larval mortality, 2 days, read-out: mortality in comparison with untreated controls. The protocol:
as §1
For evaluating control of yellow fever mosquito (Aedes aegypti) the test unit consisted of 96-well-microtiter plates containing 200 μl of tap water per well and 5-15 freshly hatched A. aegypti 5 larvae. The active compounds were formulated using a solution containing 75% (v/v) water and 25% (v/v) DMSO. Different concentrations of formulated compounds or mixtures were sprayed onto the insect diet at 2.5 μl, using a custom-built micro atomizer, at two replications. After application, microtiter plates were incubated at 28±1° C., 80±5% R^H for 2 days. Larval 10 mortality was then visually assessed.

Test [3] has as its system tobacco budworm (Heliothis virescens). The experiment in a line: Tobacco budworm (Heliothis virescens) microtiter insect-diet test. As to conditions: 120 h, read-out: mortality in comparison with untreated controls. As to the method:
as §1
For evaluating control of tobacco budworm (Heliothis virescens) the test unit consisted of 96-well-microtiter plates containing an insect diet and 15-25 H. virescens eggs. The compounds were formulated using a solution containing 75% v/v water and 25% v/v DMSO. Different concentrations of formulated compounds were sprayed onto the insect diet at 10 μl, using a custom built micro atomizer, at two replications. After application, microtiter plates were incubated at about 28±1° C. and about 80±5% relative humidity for 5 days. Egg and larval mortality was then visually assessed.

Test [4] concerns boll weevil (Anthonomus grandis). Nature of the test: Boll weevil (Anthonomus grandis) microtiter insect-diet test. The following applies: 120 h, read-out: mortality in comparison with untreated controls. The protocol: as §1
For evaluating control of boll weevil (Anthonomus grandis) the test unit consisted of 96-well-microtiter plates containing an insect diet and 5-10 A. grandis eggs. The compounds were formulated using a solution containing 75% v/v water and 25% v/v DMSO. Different concentrations of formulated compounds were sprayed onto the insect diet at 5 μl, using a custom built micro atomizer, at two replications. After application, microtiter plates were incubated at about 25±1° C. and about 75±5% relative humidity for 5 days. Egg and larval mortality was then visually assessed.

The subject of test [5] is green peach aphid (Myzus persicae). The experiment in a line: Green peach aphid (Myzus persicae) systemic test, artificial diet under membrane. As to conditions: 72 h, read-out: mortality in comparison with untreated controls. The protocol: as §1
For evaluating control of green peach aphid (Myzus persicae) through systemic means the test unit consisted of 96-well-microtiter plates containing liquid artificial diet under an artificial membrane. The compounds were formulated using a solution containing 75% v/v water and 25% v/v DMSO. Different concentrations of formulated compounds were pipetted into the aphid diet, using a custom built pipetter, at two replications. After application, 5-8 adult aphids were placed on the artificial membrane inside the microtiter plate wells. The aphids were then allowed to suck on the treated aphid diet and incubated at about 23±1° C. and about 50±5% relative humidity for 3 days. Aphid mortality and fecundity was then visually assessed.

Test [6] concerns Greenhouse Whitefly (Trialeurodes vaporariorum). The experiment in a line: Greenhouse whitefly (Trialeurodes vaporariorum) egg plant leaf disk test. As to conditions: foliar, 144 h, read-out: mortality in comparison with untreated controls. As to the method: as §1
For evaluating control of Greenhouse Whitefly (Trialeurodes vaporariorum) the test unit consisted of 96-well-microtiter plates containing a leaf disk of egg plant leaf disk with white fly eggs. The compounds or mixtures were formulated using a solution containing 75% water and 25% DMSO. Different concentrations of formulated were sprayed onto the insect diet at 2.5 μl, using a custom-built micro atomizer, at two replications. After application, microtiter plates were incubated at 23±1° C., 65±5% R^H for 6 days. Mortality of hatched crawlers was then visually assessed.

For orientation: mortality means the share of the test organisms that died. On to `CCS(=O)(=O)c1c(-c2cn3c(=O)n(C)c(C(F)(F)F)cc3n2)nc2ccc(C(F)(F)F)cn12` [I.1, 2-[3-ethylsulfonyl-6-(trifluoromethyl)imidazo[1,2-a]pyridin-2-yl]-6-methyl-7-(trifluoromethyl)imidazo[1,2-c]pyrimidin-5-one], for which the mortality at 2500 ppm was > 75% in test [1], ≥ 75% in test [2], > 75% in test [3] and > 75% in test [5]. In addition, in test [4], the mortality at 800 ppm is > 75%.

With `CCS(=O)(=O)c1c(-c2cn3c(=O)n(C4CC4)c(C(F)(F)F)cc3n2)nc2ccccn12` [I.2, 6-cyclopropyl-2-[3-(ethanesulfonyl)imidazo[1,2-a]pyridin-2-yl]-7-(trifluoromethyl)imidazo[1,2-c]pyrimidin-5-one], the mortality at 2500 ppm was ≥ 75% in test [2], ≥ 75% in test [6] and > 75% in test [5]. The mortality at 828 ppm in test [4] was > 75%.

For `CCS(=O)(=O)c1c(-c2cn3c(=O)n(C4CC4)c(C(F)(F)F)cc3n2)nn2ccccc12` [I.11, 6-cyclopropyl-2-(3-ethylsulfonylpyrazolo[1,5-a]pyridin-2-yl)-7-(trifluoromethyl)imidazo[1,2-c]pyrimidin-5-one], the mortality at 800 ppm in test [2] (800 ppm) was ≥ 75%; in test [3] it was > 75%; in test [4], > 75%; in test [5], > 75%.

Regarding `CCS(=O)(=O)c1c(-c2cn3c(=O)n(C)c(C(F)(F)F)cc3n2)nc2n1CCCC2` [I.13, 2-(3-ethylsulfonyl-5,6,7,8-tetrahydroimidazo[1,2-a]pyridin-2-yl)-6-methyl-7-(trifluoromethyl)imidazo[1,2-c]pyrimidin-5-one], the mortality at 800 ppm in test [4] is > 75%.
